# According to patent US20250127801A1, “BRIDGED TRICYCLIC CARBAMOYLPYRIDONE COMPOUNDS AND USES THEREOF” (priority 2023, published 2025):
# Like-named read-outs stand apart in the source and are kept apart here.
# How the values were obtained:
# HIV-1 (IIIB) = assay: microbe, parasite or virus in culture; assay type: cell-based
# in vitro = details: human; for CC50 at 5 days: uninfected MT-4 cells
# [1] = Human immunodeficiency virus 1, MT4, 120 h, HIV-1 (IIIB) replication in MT-4 cells, 5 days incubation, Cell Titer Glo, read-out: MT4 EC50
# [2] = Human immunodeficiency virus 1, IIIB, MT4, 120 h, read-out: MT4 EC50 (nM)
EC50 (HIV-1 (IIIB); [1]) [nM],SMILES,CC50 at 5 days (in vitro) [µM],EC50 (HIV-1 (IIIB); [2]) [nM],CC50 (in vitro) [µM]
2.93,"COC1=NO[C@@]2(CC[C@H](C)N3C[C@H]2n2cc(C(=O)NCc4ccc(F)cc4F)c(=O)c(OCOC(=O)N(C)C[C@@H]4CCCN4C(=O)OCOP(=O)(O)O)c2C3=O)C1 [Compound 16, (phosphonooxy)methyl (2S)-2-(((((((3′S,5S,7′R)-10′-((2,4-difluorobenzyl)carbamoyl)-3-methoxy-3′-methyl-1′,11′-dioxo-1′,4′,5′,11′-tetrahydro-3′H,4H,7′H-spiro[isoxazole-5,6′-[2,7]methanopyrido[1,2-a][1,4]diazonin]-12′-yl)oxy)methoxy)carbonyl)(methyl)amino)methyl)pyrrolidine-1-carboxylate]",16,–,–
12.3,"COC1=NO[C@@]2(CC[C@H](C)N3C[C@H]2n2cc(C(=O)NCc4ccc(F)cc4F)c(=O)c(OCOP(=O)(O)OCc4ccccc4)c2C3=O)C1 [Compound 18, benzyl ((((3′S,5S,7′R)-10′-((2,4-difluorobenzyl)carbamoyl)-3-methoxy-3′-methyl-1′,11′-dioxo-1′,4′,5′,11′-tetrahydro-3′H,4H,7′H-spiro[isoxazole-5,6′-[2,7]methanopyrido[1,2-a][1,4]diazonin]-12′-yl)oxy)methyl) hydrogen phosphate]",≥ 50,–,–
–,"COC1=NO[C@@]2(CC[C@H](C)N3C[C@H]2n2cc(C(=O)NCc4ccc(F)cc4F)c(=O)c(OCOC(=O)CC(C)(C)c4c(CC(=O)O)cc(C)cc4OP(=O)(O)O)c2C3=O)C1 [Compound 21, 2-(2-(4-((((3′S,5S,7′R)-10′-((2,4-difluorobenzyl)carbamoyl)-3-methoxy-3′-methyl-1′,11′-dioxo-1′,4′,5′,11′-tetrahydro-3′H,4H,7′H-spiro[isoxazole-5,6′-[2,7]methanopyrido[1,2-a][1,4]diazonin]-12′-yl)oxy)methoxy)-2-methyl-4-oxobutan-2-yl)-5-methyl-3-(phosphonooxy)phenyl)acetic acid]",–,2.54,12.6
–,"COC1=NO[C@@]2(CC[C@H](C)N3C[C@H]2n2cc(C(=O)NCc4ccc(F)cc4F)c(=O)c(OC(=O)Cc4ccc(OP(=O)(O)O)cc4)c2C3=O)C1 [Compound 29, (3′S,5S,7′R)-10′-((2,4-difluorobenzyl)carbamoyl)-3-methoxy-3′-methyl-1′,11′-dioxo-1′,4′,5′,11′-tetrahydro-3′H,4H,7′H-spiro[isoxazole-5,6′-[2,7]methanopyrido[1,2-a][1,4]diazonin]-12′-yl 2-(4-(phosphonooxy)phenyl)acetate]",–,2.01,27.8
3.09,"CC1=NO[C@@]2(CC[C@H](C)N3C[C@H]2n2cc(C(=O)NCc4ccc(F)cc4F)c(=O)c(OCOC(=O)N(C)c4ncccc4CN(CC(=O)N[C@@H](CC(=O)O)C(=O)O)C(=O)OCOP(=O)(O)O)c2C3=O)C1 [Compound 36, N-((2-((((((3′S,5S,7′R)-10′-((2,4-difluorobenzyl)carbamoyl)-3,3′-dimethyl-1′,11′-dioxo-1′,4′,5′,11′-tetrahydro-3′H,4H,7′H-spiro[isoxazole-5,6′-[2,7]methanopyrido[1,2-a][1,4]diazonin]-12′-yl)oxy)methoxy)carbonyl)(methyl)amino)pyridin-3-yl)methyl)-N-(((phosphonooxy)methoxy)carbonyl)glycyl-L-aspartic acid]",22,–,–
–,"CC1=NO[C@@]2(CC[C@H](C)N3C[C@H]2n2cc(C(=O)NCc4ccc(F)cc4F)c(=O)c(OCOC(=O)CC(C)(C)c4c(CC(=O)N[C@@H](CCC(=O)O)C(=O)O)cc(C)cc4OP(=O)(O)O)c2C3=O)C1 [Compound 42, (2-(2-(4-((((3′S,5S,7′R)-10′-((2,4-difluorobenzyl)carbamoyl)-3,3′-dimethyl-1′,11′-dioxo-1′,4′,5′,11′-tetrahydro-3′H,4H,7′H-spiro[isoxazole-5,6′-[2,7]methanopyrido[1,2-a][1,4]diazonin]-12′-yl)oxy)methoxy)-2-methyl-4-oxobutan-2-yl)-5-methyl-3-(phosphonooxy)phenyl)acetyl)-L-glutamic acid]",–,1.9,15.7
1.69,"CC1=NO[C@@]2(CC[C@H](C)N3C[C@H]2n2cc(C(=O)NCc4ccc(F)cc4F)c(=O)c(OCOC(=O)O[C@@H]4CCCC[C@@H]4OP(=O)(O)O)c2C3=O)C1 [Compound 50, (((3′S,5S,7′R)-10′-((2,4-difluorobenzyl)carbamoyl)-3,3′-dimethyl-1′,11′-dioxo-1′,4′,5′,11′-tetrahydro-3′H,4H,7′H-spiro[isoxazole-5,6′-[2,7]methanopyrido[1,2-a][1,4]diazonin]-12′-yl)oxy)methyl ((1R,2S)-2-(phosphonooxy)cyclohexyl) carbonate]",21.6,–,–
1.47,"CC1=NO[C@@]2(CC[C@H](C)N3C[C@H]2n2cc(C(=O)NCc4ccc(F)cc4F)c(=O)c(OCOC(=O)OC[C@@H]4CCCC[C@@H]4OP(=O)(O)O)c2C3=O)C1 [Compound 52, (((3′S,5S,7′R)-10′-((2,4-difluorobenzyl)carbamoyl)-3,3′-dimethyl-1′,11′-dioxo-1′,4′,5′,11′-tetrahydro-3′H,4H,7′H-spiro[isoxazole-5,6′-[2,7]methanopyrido[1,2-a][1,4]diazonin]-12′-yl)oxy)methyl (((1S,2S)-2-(phosphonooxy)cyclohexyl)methyl) carbonate]",13,–,–
–,"CC1=NO[C@@]2(CC[C@H](C)N3C[C@H]2n2cc(C(=O)NCc4ccc(F)cc4F)c(=O)c(OCOC(=O)N(C)c4ncccc4CN(CC(=O)N[C@@H](CCC(=O)O)C(=O)O)C(=O)OCOP(=O)(O)O)c2C3=O)C1 [Compound 60, N-((2-((((((3′S,5S,7′R)-10′-((2,4-difluorobenzyl)carbamoyl)-3,3′-dimethyl-1′,11′-dioxo-1′,4′,5′,11′-tetrahydro-3′H,4H,7′H-spiro[isoxazole-5,6′-[2,7]methanopyrido[1,2-a][1,4]diazonin]-12′-yl)oxy)methoxy)carbonyl)(methyl)amino)pyridin-3-yl)methyl)-N-(((phosphonooxy)methoxy)carbonyl)glycyl-L-glutamic acid]",–,1.59,13.8
–,"CCCCCCCCCCCCCC(=O)NCc1ccccc1C(=O)Oc1c2n(cc(C(=O)NCc3ccc(F)cc3F)c1=O)[C@@H]1CN(C2=O)[C@@H](C)CC[C@]12CC(OC)=NO2 [Compound 101, (3′S,5S,7′R)-10′-((2,4-difluorobenzyl)carbamoyl)-3-methoxy-3′-methyl-1′,11′-dioxo-1′,4′,5′,11′-tetrahydro-3′H,4H,7′H-spiro[isoxazole-5,6′-[2,7]methanopyrido[1,2-a][1,4]diazonin]-12′-yl 2-(tetradecanamidomethyl)benzoate]",≥ 50,–,–
–,"CCCCCCCCCCCCCC(=O)NCc1ccccc1C(=O)Oc1c2n(cc(C(=O)NCc3ccc(F)cc3F)c1=O)[C@@H]1CN(C2=O)[C@@H](C)CC[C@]12CC(C)=NO2 [Compound 102, (3′S,5S,7′R)-10′-((2,4-difluorobenzyl)carbamoyl)-3,3′-dimethyl-1′,11′-dioxo-1′,4′,5′,11′-tetrahydro-3′H,4H,7′H-spiro[isoxazole-5,6′-[2,7]methanopyrido[1,2-a][1,4]diazonin]-12′-yl 2-(tetradecanamidomethyl)benzoate]",31.8,–,–
